Read-outs that look alike come from different tables or passages of the source.
Experiments:
OVCAR3 cells = test: Cell proliferation activity test in OVCAR3 cells (CyQUANT Direct); type: cell-based; conditions: 3 days incubation, CyQUANT fluorescence detection, read-out: OVCAR-3_IC50_nM
Experimental: OVCAR3 cells were purchased from Nanjing Cobioer Biosciences Co., Ltd. RPMI-1640 medium, fetal bovine serum, and the CyQUANT Direct Cell Proliferation Assay kit were purchased from Thermo Fisher Scientific, USA; 96-well cell culture plates were sourced from Corning, USA.
Culture OVCAR3 cells with RPMI-1640 medium containing 10% fetal bovine serum and incubate them in a 5% CO2 incubator at 37° C. Only cells in the logarithmic growth phase can be used for the test.
Inoculate OVCAR3 cells into a 96-well cell culture plate at 90 μL per well and incubate overnight in a 5% CO2 incubator at 37° C. Dissolve the compound powder in DMSO to prepare a stock solution of 10 mM. Then perform gradient dilution for the compounds in the microplate to achieve a final concentration of 0-10 μM. Add 10 μL of cell culture medium containing compounds to each well to make the final DMSO content 0.2%. Incubate the cell plates in a 5% CO2 incubator at 37° C. for 3 days. Add 100 μL of CyQUANT detection reagent to each well, react at 37° C. for 60 min, and perform fluorescence detection using the PerkinElmer Envision.

[1] = target: T1, Human KIF18A (amino acid sequence 1-417) (Homo sapiens, UniProt Q8NI77); test: Enzymatic activity test (ADP-Glo, microtubule-stimulated KIF18A ATPase); type: biochemical; conditions: 60 μg/mL microtubules, 25 μM ATP, 2.5 nM KIF18A protein, 120 min at ambient temperature, read-out: KIF18A_nM
T1 construct: purchased Viva Biotech (Shanghai) Ltd
T1 sequence (Q8NI77 1-417): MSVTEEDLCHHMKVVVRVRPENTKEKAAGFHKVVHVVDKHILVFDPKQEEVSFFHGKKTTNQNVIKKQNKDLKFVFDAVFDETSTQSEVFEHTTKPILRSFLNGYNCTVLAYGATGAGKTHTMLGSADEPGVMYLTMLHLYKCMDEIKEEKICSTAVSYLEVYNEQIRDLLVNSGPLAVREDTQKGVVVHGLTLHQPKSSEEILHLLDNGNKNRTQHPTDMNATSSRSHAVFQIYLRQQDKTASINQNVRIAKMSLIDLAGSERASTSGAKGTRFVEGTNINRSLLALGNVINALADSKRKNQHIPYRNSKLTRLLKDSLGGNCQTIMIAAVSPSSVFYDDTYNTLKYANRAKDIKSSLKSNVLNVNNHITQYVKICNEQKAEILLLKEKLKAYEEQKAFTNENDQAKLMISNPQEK
Experimental: Human KIF18A (amino acid sequence 1-417) was purchased from Viva Biotech (Shanghai) Ltd.; the ADP-Glo™ protein kinase kit was acquired from Promega, USA; tubulin was sourced from Cytoskeleton, USA; and the 384-well assay plate and Envision multifunctional microplate reader were obtained from PerkinElmer, USA.
Dissolve the compound powder in DMSO to prepare a stock solution of 10 mM. Then perform gradient dilution for the compounds in the microplate to achieve a final concentration of 0-10 μM. Then, add 2.5 μL each of tubulin, compound, ATP, and KIF18A protein to the microplate in sequence for reaction at ambient temperature for 120 min. The final concentrations in the enzyme reaction are 60 μg/mL for microtubules, 25 μM for ATP, and 2.5 nM for KIF18A protein. After the enzyme reaction, add 10 μL of ADP-GLO reaction reagent to each well and incubate at ambient temperature for 30 min. After that, add 20 μL of detection reagent to each well and incubate at ambient temperature for 30 min in the dark. Finally, perform chemiluminescence detection using the PerkinElmer Envision.

HT29 cells = test: CyQuant cell proliferation activity test in HT29 cells; type: cell-based; conditions: Homo sapiens, HT-29, 72 h, 2000 cells per well, 3 days incubation, IC50 by XLFIT, read-out: HT29_IC50_nM
Experimental: HT29 cells were purchased from Nanjing Cobioer Biosciences Co., Ltd.; RPMI-1640 medium, fetal bovine serum, Trypsin-EDTA (0.25%), 96-well plates, and CyQuant reagents were purchased from ThermoFisher (USA); DMSO was purchased from SIGMA (USA).
Culture HT29 cells with RPMI-1640 containing 10% fetal bovine serum under the condition of 37° C. and 5% CO2. Only cells in the logarithmic growth phase can be used for the test.
Use the CyQuant reagent to detect the proliferation inhibitory activity of compounds on HT29 cells. Adjust the cell density and inoculate 100 μL per well into the 96-well plate (HT29 at 2000 cells per well), then incubate overnight under the condition of 37° C. and 5% CO2. Add compounds of various target concentrations (initial concentration of 3000 nM, 3-fold dilution, 9 concentration gradients), and make the DMSO content 0.2%. Incubate the cell plates at 37° C. and 5% CO2 for 3 days. Incubate with CyQuant reagent for 1 h, read the plate by Envision, and calculate IC50 using XLFIT.

`O=C(Nc1nc(N2CCC(F)(F)CC2)nc2c1CCC2)c1ccc(NS(=O)(=O)CCO)cc1N1CCC2(CC1)CC2` [Example 1] was tested, and the IC50 (OVCAR3 cells; Homo sapiens, OVCAR-3, 72 h) was 1030 nM and the IC50 [1] was 190 nM.
In the case of `O=C(Nc1nc(N2CCC(F)(F)CC2)nc2c1COC2)c1ccc(NS(=O)(=O)CCO)cc1N1CCC2(CC1)CC2` [Example 2, N-(2-(4,4-difluoropiperidin-1-yl)-5,7-dihydrofuro[3,4-d]pyrimidin-4-yl)-4-((2-hydroxyethyl)sulfonamide)-2-(6-azaspiro[2.5]octan-6-yl)benzamide], the IC50 (OVCAR3 cells; Homo sapiens, OVCAR-3, 72 h) is reported as 899 nM and the IC50 [1] is reported as 251 nM.
Compound `O=C(Nc1nc2c(c(N3CCC(F)(F)CC3)n1)CCC2)c1ccc(NS(=O)(=O)CCO)cc1N1CCC2(CC1)CC2` [Example 3, N-(4-(4,4-difluoropiperidin-1-yl)-6,7-dihydro-5H-cyclopenta[d]pyrimidin-2-yl)-4-((2-hydroxyethyl)sulfonamide)-2-(6-azaspiro[2.5]oct-6-yl)benzamide] has an IC50 (OVCAR3 cells; Homo sapiens, OVCAR-3, 72 h) of 566 nM and an IC50 [1] of 68 nM.
For `CC(C)(C)OC(=O)N1Cc2nc(NC(=O)c3ccc(NS(=O)(=O)CCO)cc3N3CCC4(CC3)CC4)nc(N3CCC(F)(F)CC3)c2C1` [Example 6, Tert-butyl 4-(4,4-difluoropiperidin-1-yl)-2-(4-(2-hydroxyethylsulfonamido)-2-(6-azaspiro[2.5]octan-6-yl)benzoylamino)-5H-pyrrolo[3,4-d]pyrimidine-6 (7H)-carboxylate], the IC50 (OVCAR3 cells; Homo sapiens, OVCAR-3, 72 h) was 1480 nM and the IC50 [1] was 241 nM.
With `O=C(Nc1cc2nccn2c(N2CCC(F)(F)CC2)n1)c1ccc(NS(=O)(=O)CCO)cc1N1CCC2(CC1)CC2` [Example 21, N-(5-(4,4-difluoropiperidin-1-yl)imidazolo[1,2-c]pyrimidin-7-yl)-4-((2-hydroxyethyl)sulfonamide)-2-(6-azaspiro[2.5]octan-6-yl)benzamide] the IC50 (OVCAR3 cells; Homo sapiens, OVCAR-3, 72 h) was 358 nM.
Work on `O=C(Nc1nc(N2CCC(F)(F)CC2)cc2nccn12)c1ccc(NS(=O)(=O)CCO)cc1N1CCC2(CC1)CC2` [Example 22] yielded an IC50 [1] of 1940 nM.
`O=C(Nc1nc(N2CCC(F)(F)CC2)c2occc2c1Cl)c1ccc(NS(=O)(=O)CCO)cc1N1CCC2(CC1)CC2` [Example 33, N-(4-chloro-7-(4,4-difluoropiperidin-1-yl)furo[2,3-c]pyridin-5-yl)-4-(2-hydroxyethylsulfonamido)-2-(6-azaspiro[2.5]octan-6-yl)benzamide] showed an IC50 [1] of 1640 nM.
For `Cn1ccc2c(N3CCC(F)(F)CC3)nc(NC(=O)c3ccc(NS(=O)(=O)CCO)cc3N3CCC4(CC3)CC4)cc21` [Example 38], the IC50 (HT29 cells) was 126 nM and the IC50 [1] was 131 nM.
`O=C(Nc1cc2cccnc2c(C2CCN(CC(F)(F)F)CC2)n1)c1ccc(NS(=O)(=O)CCO)cc1N1CCC2(CC1)CC2` [Example 50, 4-(2-hydroxyethylsulfonamido)-2-(6-azaspiro[2.5]octan-6-yl)-N-(8-(1-(2,2,2-trifluoroethyl)piperidin-4-yl)-1,7-naphthyridin-6-yl)benzamide] showed an IC50 [1] of 1490 nM.
In the case of `O=C(Nc1cc2ncccc2c(N2CCC(F)(F)CC2)n1)c1ccc(NS(=O)(=O)CCO)cc1N1CCC2(CC1)CC2` [Example 57], the IC50 [1] is reported as 77 nM.
`COc1ccc2cc(NC(=O)c3ccc(NS(=O)(=O)CCO)cc3N3CCC4(CC3)CC4)c(F)c(N3CCC(F)(F)CC3)c2n1` [Example 77, N-(8-(4,4-difluoropiperidin-1-yl)-7-fluoro-2-methoxyquinolin-6-yl)-4-((2-hydroxyethyl)sulfonamido)-2-(6-azaspiro[2.5]oct-6-yl)benzamide] gave an IC50 (OVCAR3 cells; Homo sapiens, OVCAR-3, 72 h) of 745 nM and an IC50 [1] of 848 nM.
Compound `O=C(Nc1cc(N2CCC(F)(F)CC2)c2nccnc2c1)c1ccc(NS(=O)(=O)CCO)cc1N1CCC2(CC1)CC2` [Example 83, N-(8-(4,4-difluoropiperidin-1-yl)quinoxalin-6-yl)-4-((2-hydroxyethyl)sulfonamido)-2-(6-azaspiro[2.5]octan-6-yl)benzamide] has an IC50 (OVCAR3 cells; Homo sapiens, OVCAR-3, 72 h) of 15 nM and an IC50 [1] of 27 nM.
`CP(C)(=O)c1cnc2c(N3CCC(F)(F)CC3)cc(NC(=O)c3ccc(NS(=O)(=O)CCO)cc3N3CCC4(CC3)CC4)cc2c1` [Example 85, N-(8-(4,4-difluoropiperidin-1-yl)-3-(dimethylphosphoryl)quinolin-6-yl)-4-(2-hydroxyethylsulfonamido)-2-(6-azaspiro[2.5]octan-6-yl)benzamide] showed an IC50 [1] greater than 3000 nM.
With `O=C(Nc1cc(N2CCC(F)(F)CC2)c2ncccc2n1)c1ccc(NS(=O)(=O)CCO)cc1N1CCC2(CC1)CC2` [Example 92, N-(4-(4,4-difluoropiperidin-1-yl)-1,5-naphthyridin-2-yl)-4-(2-hydroxyethylsulfonamido)-2-(6-azaspiro[2.5]octan-6-yl)benzamide] the IC50 [1] was 2260 nM.
`O=C(Nc1cc(N2CCC(F)(F)CC2)nc2cccnc12)c1ccc(NS(=O)(=O)CCO)cc1N1CCC2(CC1)CC2` [Example 93, N-(2-(4,4-difluoropiperidin-1-yl)-1,5-naphthyridin-4-yl)-4-(2-hydroxyethylsulfonamido)-2-(6-azaspiro[2.5]octan-6-yl)benzamide] showed an IC50 [1] greater than 3000 nM.
In the case of `C[C@H](CO)S(=O)(=O)Nc1ccc(C(=O)Nc2cc3sc(N)nc3c(N3CCC(F)(F)CC3)c2F)c(N2CCC3(CC2)CC3)c1` [Example 94, N-[2-amino-4-(4,4-difluoropiperidin-1-yl)-5-fluoro-1,3-benzothiazol-6-yl]-2-{6-azaspiro[2.5]octan-6-yl}-4-[(2R)-1-hydroxypropane-2-sulfonamido]benzamide], the IC50 (OVCAR3 cells; Homo sapiens, OVCAR-3, 72 h) is reported as 5.9 nM and the IC50 [1] is reported as 255 nM.
In the case of `C[C@@H](CO)S(=O)(=O)Nc1ccc(C(=O)Nc2cc3sc(N)nc3c(N3CCC(F)(F)CC3)c2F)c(N2CCC3(CC2)CC3)c1` [Example 95, N-[2-amino-4-(4,4-difluoropiperidin-1-yl)-5-fluoro-1,3-benzothiazol-6-yl]-2-{6-azaspiro[2.5]octan-6-yl}-4-[(2S)-1-hydroxypropane-2-sulfonamido]benzamide], the IC50 (OVCAR3 cells; Homo sapiens, OVCAR-3, 72 h) is reported as 4.7 nM and the IC50 [1] is reported as 242 nM.
With `CC(CO)S(=O)(=O)Nc1ccc(C(=O)Nc2cc3sc(N)nc3c(N3CCC(F)(F)CC3)c2F)c(C2=CCC3(CC2)CC3)c1` (stereo not drawn) [Example 101, N-(2-amino-4-(4,4-difluoropiperidin-1-yl)-5-fluorobenzo[d]thiazol-6-yl)-4-((2-hydroxy-1-methylethyl)sulfonamido)-2-(spiro[2.5]oct-5-en-6-yl)benzamide] the IC50 [1] was 139 nM.
For `CC(CO)S(=O)(=O)Nc1ccc(C(=O)Nc2cc3cccnc3c(N3[C@H](C)COC[C@H]3C)n2)c(N2CCC3(CC2)CC3)c1` (stereo partly drawn) [Example 102, 2-{6-Azaspiro[2.5]octan-6-yl}-N-[8-((3R,5R)-3,5-dimethylmorpholino)-1,7-naphthyridin-6-yl]-4-[1-hydroxypropane-2-sulfonamido]benzamide], the IC50 [1] was 150 nM.
Work on “N-(5-(4,4-difluoropiperidin-1-yl) imidazo[1,2-c]pyrimidin-7-yl)-6-((2-hydroxyethyl)sulfonamido)-4-(6-azaspiro[2.5]octan-6-yl) nicotinamide [Example 23]” yielded an IC50 (OVCAR3 cells) greater than 10000 nM and an IC50 [1] of 42 nM.

From patent US20260159500A1, “KINESIN KIF18A INHIBITOR AND USE THEREOF” (SHANGHAI APEIRON THERAPEUTICS COMPANY LIMITED, priority 2022, published 2026)
